Molecules are shown by their SMILES. ≈ marks a conversion by molar mass, not a printed value.

What all share (assay type): cell-based
For assay [1], the system named is Escherichia coli ATCC 25922. In words: MIC, standard microdilution technique. As to conditions: for MIC: ATCC25922, read-out: minimum inhibitory concentration (MIC), Strain D. An outline of the steps:
(§1)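 Antibacterial activity was determined by broth microdilution following the NCCLS approved standard M7-A5 (5th edition, 2000) for dilution susceptibility testing of aerobically growing bacteria.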
(In general: Broth dilution looks for growth in wells or tubes with falling amounts of substance.)

Assay [2] relates to Staphylococcus aureus 1086. Put plainly: MIC, standard microdilution technique. As to conditions: for MIC: read-out: minimum inhibitory concentration (MIC), Strain B. The method in brief:
as §1

Assay [3] has as its system Staphylococcus aureus 745. Put plainly: MIC, standard microdilution technique. The note with it: for MIC: read-out: minimum inhibitory concentration (MIC), Strain C. An outline of the steps: as §1
Assay [4] deals with Staphylococcus aureus ATCC 29213. In words: MIC, standard microdilution technique. The note with it: for MIC: ATCC29213, read-out: minimum inhibitory concentration (MIC), Strain A. An outline of the steps:
as §1

Assay [5] deals with Streptococcus pneumoniae 12288. Put plainly: MIC, standard microdilution technique. As to conditions: for MIC: read-out: minimum inhibitory concentration (MIC), Strain H. The method in brief: as §1
Assay [6] relates to Streptococcus pneumoniae SL199T. In words: MIC, standard microdilution technique. The note with it: for MIC: read-out: minimum inhibitory concentration (MIC), Strain G. An outline of the steps: as §1
Assay [7] has as its system Streptococcus pneumoniae l/l. Put plainly: MIC, standard microdilution technique. As to conditions: for MIC: read-out: minimum inhibitory concentration (MIC), Strain E. An outline of the steps: as §1
In assay [8] the test system is Streptococcus pneumoniae ¼. In words: MIC, standard microdilution technique. As to conditions: for MIC: read-out: minimum inhibitory concentration (MIC), Strain F. The method in brief:
as §1

Assay [9] relates to Haemophilus influenzae 12214. Put plainly: MIC, standard agar dilution method using HTM medium. As to conditions: for MIC: read-out: minimum inhibitory concentration (MIC), Strain K. The method in brief: (§2)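 MICs were read following the NCCLS approved standard (M7-A5) for dilution susceptibility testing of aerobically growing bacteria. Compounds were tested against Haemophilus influenzae.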

Assay [10] deals with Haemophilus influenzae B1501. The description is as above. As to conditions: for MIC: read-out: minimum inhibitory concentration (MIC), Strain M. The method in brief:
as §2

Assay [11] deals with Haemophilus influenzae QK12/87. The description is as above. The note with it: for MIC: read-out: minimum inhibitory concentration (MIC), Strain I. The method in brief:
as §2

Assay [12] concerns Haemophilus influenzae QK50. The assay is described as above. The note with it: for MIC: read-out: minimum inhibitory concentration (MIC), Strain L. The method in brief:
as §2

Regarding `CC[C@H]1OC(=O)[C@@](C)(F)C(=O)[C@H](C)[C@@H](O[C@@H]2O[C@H](C)C[C@H](N(C)C)[C@H]2O)[C@](C)(OC)C[C@@H](C)C(=O)[C@H](C)[C@H]2[C@@H](SCCn3cnc4c(N)ncnc43)C(=O)O[C@@]21C` (single isomer, unassigned) [Example 56], the “minimum inhibitory concentration (MIC), Strain D” value in assay [1] was 32 µg/mL (≈ 38.9 µM). Further, the “minimum inhibitory concentration (MIC), Strain B” value in [2] is given as “<=0.06 μg/ml”. For the same molecule, the “minimum inhibitory concentration (MIC), Strain C” value in assay [3] is greater than 32 µg/mL. Moreover, the “minimum inhibitory concentration (MIC), Strain A” value in assay [4] was “<=0.06 μg/ml”. Besides, the “minimum inhibitory concentration (MIC), Strain H” value in [5] was determined as 1 µg/mL (≈ 1.22 µM). Also, the “minimum inhibitory concentration (MIC), Strain G” value in [6] was “<=0.06 μg/ml”. Moreover, in assay [7], the “minimum inhibitory concentration (MIC), Strain E” value is recorded as “<=0.06 μg/ml”. Moreover, the “minimum inhibitory concentration (MIC), Strain F” value in assay [8] is given as “<=0.06 μg/ml”. Also, the “minimum inhibitory concentration (MIC), Strain K” value in [9] was found to be 1 µg/mL (≈ 1.22 µM). In addition, the “minimum inhibitory concentration (MIC), Strain M” value in [10] turned out to be 0.5 µg/mL (≈ 0.608 µM). Also, the “minimum inhibitory concentration (MIC), Strain I” value in assay [11] came to 1 µg/mL (≈ 1.22 µM). For the same molecule, the “minimum inhibitory concentration (MIC), Strain L” value in [12] came out at 0.5 µg/mL (≈ 0.608 µM).

On to `CC[C@H]1OC(=O)[C@@](C)(F)C(=O)[C@H](C)[C@@H](O[C@@H]2O[C@H](C)C[C@H](N(C)C)[C@H]2O)[C@](C)(OC)C[C@@H](C)C(=O)[C@H](C)[C@H]2[C@@H]([S+]([O-])CCCn3cnc4c(N)ncnc43)C(=O)O[C@@]21C` (single isomer, unassigned) [Example 57], for which the “minimum inhibitory concentration (MIC), Strain D” value in [1] is greater than 32 µg/mL. In assay [2], the “minimum inhibitory concentration (MIC), Strain B” value amounted to 2 µg/mL (≈ 2.34 µM). For the same molecule, in assay [3], the “minimum inhibitory concentration (MIC), Strain C” value is greater than 32 µg/mL. For the same molecule, the “minimum inhibitory concentration (MIC), Strain A” value in assay [4] came to 2 µg/mL (≈ 2.34 µM). The “minimum inhibitory concentration (MIC), Strain H” value in assay [5] was determined as 32 µg/mL (≈ 37.5 µM). For the same molecule, the “minimum inhibitory concentration (MIC), Strain G” value in assay [6] worked out at 1 µg/mL (≈ 1.17 µM). Moreover, the “minimum inhibitory concentration (MIC), Strain E” value in assay [7] is “<=0.06 μg/ml”. In addition, the “minimum inhibitory concentration (MIC), Strain F” value in [8] came to 0.125 µg/mL (≈ 0.147 µM). For the same molecule, the “minimum inhibitory concentration (MIC), Strain K” value in assay [9] came to 8 µg/mL (≈ 9.38 µM). Moreover, the “minimum inhibitory concentration (MIC), Strain M” value in [10] was determined as 4 µg/mL (≈ 4.69 µM). Besides, the “minimum inhibitory concentration (MIC), Strain I” value in assay [11] worked out at 4 µg/mL (≈ 4.69 µM). Further, the “minimum inhibitory concentration (MIC), Strain L” value in assay [12] was 8 µg/mL (≈ 9.38 µM).

Take `CC[C@H]1OC(=O)[C@H](C)[C@@H](O[C@H]2C[C@@](C)(OC)[C@@H](O)[C@H](C)O2)[C@H](C)[C@@H](O[C@@H]2O[C@H](C)C[C@H](N(C)C)[C@H]2O)[C@](C)(OC)C[C@@H](C)C(=O)[C@H](C)[C@@H](O)[C@]1(C)O` [Clarithromycin, reference compound]: the MIC was greater than 32 µg/mL in [1]; greater than 32 µg/mL in assay [2]; greater than 32 µg/mL in assay [3]; 0.125 µg/mL (≈ 0.167 µM) in assay [4]; greater than 32 µg/mL in assay [5]; greater than 32 µg/mL in [6]. The MIC was no more than 0.06 µg/mL in assay [7]; 32 µg/mL (≈ 42.8 µM) in [8]; 4 µg/mL (≈ 5.35 µM) in [9]; 4 µg/mL (≈ 5.35 µM) in [10]; 4 µg/mL (≈ 5.35 µM) in assay [11]; 8 µg/mL (≈ 10.7 µM) in assay [12].

Regarding `CC[C@H]1OC(=O)[C@H](C)[C@@H](O[C@H]2C[C@@](C)(OC)[C@@H](O)[C@H](C)O2)[C@H](C)[C@@H](O[C@@H]2O[C@H](C)C[C@H](N(C)C)[C@H]2O)[C@](C)(O)C[C@@H](C)C(=O)[C@H](C)[C@@H](O)[C@]1(C)O` [Erythromycin, reference compound], the MIC is greater than 32 µg/mL in [1]; greater than 32 µg/mL in assay [2]; greater than 32 µg/mL in assay [3]; 0.25 µg/mL (≈ 0.341 µM) in assay [4]; greater than 32 µg/mL in assay [5]; greater than 32 µg/mL in [6]. The MIC in assay [7] was no more than 0.06 µg/mL; in assay [8], greater than 32 µg/mL; in assay [9] it was 4 µg/mL (≈ 5.45 µM); in assay [10], 4 µg/mL (≈ 5.45 µM); in [11] it was 4 µg/mL (≈ 5.45 µM); in [12], 8 µg/mL (≈ 10.9 µM).

Source of the values: patent publication US6995143B2, “Macrolides with antibacterial activity” (Basilea Pharmaceutica AG, priority 2002, dated 2006).
